Measurements: patent US20210238162A1, “CHEMICAL COMPOUNDS” (GlaxoSmithKline Intellectual Property Development Limited, priority 2015, published 2021)

Target: T1, haematopoietic prostaglandin D synthase (H-PGDS) (Homo sapiens, UniProt O60760)
T1 construct: Full length human H-PGDS cDNA (Invitrogen Ultimate ORF IOH13026) was amplified by PCR; made in house; host or cells: E. coli BL21 (DE3*), vector pET22b+
Assay: H-PGDS RapidFire High Throughput Mass Spectrometry Assay
Format: biochemical
Conditions: H-PGDS RapidFire MS assay, mean pIC50; read-out: Potency Range (mean pIC50) (converted)
Summary of the method: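 PGH2 (~10 μM burst) generated in situ from arachidonic acid by FLAG-tagged human COX-2 (Sf9-expressed), then converted to PGD2 by full-length human His-tagged H-PGDS from E. coli. PGD2 and PGF2α (substrate surrogate) quantified by RapidFire SPE-triple quadrupole MS; percent conversion calculated.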

T1 sequence (O60760 whole entry): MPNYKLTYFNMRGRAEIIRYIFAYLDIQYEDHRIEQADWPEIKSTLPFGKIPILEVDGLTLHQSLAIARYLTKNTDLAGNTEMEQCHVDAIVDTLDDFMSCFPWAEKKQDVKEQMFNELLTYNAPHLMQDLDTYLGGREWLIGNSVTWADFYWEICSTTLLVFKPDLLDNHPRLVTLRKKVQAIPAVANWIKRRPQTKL

First: CC1CN(c2cc3ncc(C(=O)N[C@H]4CC[C@H](C(C)(C)O)CC4)cc3cc2F)C1 [Example 183, 6-Fluoro-N-(trans-4-(2-hydroxypropan-2-yl)cyclohexyl)-7-(3-methylazetidin-1-yl)quinoline-3-carboxamide]
Second: C[C@H]1CCN1c1cc2ncc(C(=O)N[C@H]3CC[C@H](C(C)(C)O)CC3)cc2cc1Cl [Example 187, 6-Chloro-N-(trans-4-(2-hydroxypropan-2-yl)cyclohexyl)-7-((S)-2-methylazetidin-1-yl)quinoline-3-carboxamide]
The IC50 of the first is higher: 10 to 79.4 nM for the first, under 10 nM for the second.

`CC(C)(O)[C@H]1CC[C@H](NC(=O)c2cnc3cc(SC(F)F)c(F)cc3c2)CC1` [Example 184, 7-((Difluoromethyl)thio)-6-fluoro-N-(trans-4-(2-hydroxypropan-2-yl)cyclohexyl)quinoline-3-carboxamide] and `CC(C)(O)[C@H]1CC[C@H](NC(=O)c2cnc3cc([S+]([O-])C(F)F)c(F)cc3c2)CC1` (stereo partly drawn) [Example 185, 7-((Difluoromethyl)sulfinyl)-6-fluoro-N-(trans-4-(2-hydroxypropan-2-yl)cyclohexyl)quinoline-3-carboxamide] fall in the same range of IC50: 10 to 79.4 nM for the first, 10 to 79.4 nM for the second.

First: Cc1ccc2cc(C(=O)N[C@H]3CC[C@H](C(C)(C)O)CC3)cnc2c1 [Example 186, N-(trans-4-(2-Hydroxypropan-2-yl)cyclohexyl)-7-methylquinoline-3-carboxamide]
Second: CC(C)(O)[C@H]1CC[C@H](NC(=O)c2cnc3cc(Br)ccc3c2)CC1 [Example 191, 7-Bromo-N-(trans-4-(2-hydroxypropan-2-yl)cyclohexyl)quinoline-3-carboxamide]
The IC50 of the first is higher: 100 to 1000 nM for the first, 10 to 79.4 nM for the second.

First: C[C@H]1CCN1c1cc2ncc(C(=O)N[C@H]3CCNC3=O)cc2cc1Cl [Example 188, 6-Chloro-7-((S)-2-methylazetidin-1-yl)-N—((S)-2-oxopyrrolidin-3-yl)quinoline-3-carboxamide]
Second: C[C@@H]1CNC(=O)[C@H]1NC(=O)c1cnc2cc(N3CC[C@@H]3C)c(Cl)cc2c1 [Example 205, 6-Chloro-N-((3S,4R)-4-methyl-2-oxopyrrolidin-3-yl)-7-((S)-2-methylazetidin-1-yl)quinoline-3-carboxamide]
The IC50 of the first is higher: 10 to 79.4 nM for the first, under 10 nM for the second.

First: COc1cccc2cc(C(=O)N[C@H]3CC[C@H](C(C)(C)O)CC3)cnc12 [Example 189, N-(trans-4-(2-Hydroxypropan-2-yl)cyclohexyl)-8-methoxyquinoline-3-carboxamide]
Second: COc1ccc2cc(C(=O)N[C@H]3CC[C@H](C(C)(C)O)CC3)cnc2c1F [Example 202, 8-Fluoro-N-(trans-4-(2-hydroxypropan-2-yl)cyclohexyl)-7-methoxyquinoline-3-carboxamide]
The IC50 of the first is higher: 100 to 1000 nM for the first, 10 to 79.4 nM for the second.

`CC(C)(O)[C@H]1CC[C@H](NC(=O)c2cnc3cc(C(F)(F)F)ccc3c2)CC1` [Example 190, N-(trans-4-(2-Hydroxypropan-2-yl)cyclohexyl)-7-(trifluoromethyl)quinoline-3-carboxamide] and `CC(C)(O)[C@H]1CC[C@H](NC(=O)c2cnc3cc(Cl)ccc3c2)CC1` [Example 204, 7-Chloro-N-(trans-4-(2-hydroxypropan-2-yl)cyclohexyl)quinoline-3-carboxamide] fall in the same range of IC50: 100 to 1000 nM for the first, 100 to 1000 nM for the second.

Compared with `CC(C)(O)[C@H]1CC[C@H](NC(=O)c2cnc3cc(C4CC4)ccc3c2)CC1` [Example 192, 7-Cyclopropyl-N-(trans-4-(2-hydroxypropan-2-yl)cyclohexyl)quinoline-3-carboxamide], `CC(C)(O)[C@H]1CC[C@H](NC(=O)c2cnc3cc(C4CCC4)ccc3c2)CC1` [Example 197, 7-Cyclobutyl-N-(trans-4-(2-hydroxypropan-2-yl)cyclohexyl)quinoline-3-carboxamide] is higher in IC50: under 10 nM for the first, 10 to 79.4 nM for the second.

`CC(C)(O)[C@H]1CC[C@H](NC(=O)c2cnc3cc(N4CCC4)ccc3c2)CC1` [Example 194, 7-(Azetidin-1-yl)-N-(trans-4-(2-hydroxypropan-2-yl)cyclohexyl)quinoline-3-carboxamide] and `CN(C)c1ccc2cc(C(=O)N[C@H]3CC[C@H](C(C)(C)O)CC3)cnc2c1` [Example 196, 7-(Dimethylamino)-N-(trans-4-(2-hydroxypropan-2-yl)cyclohexyl)quinoline-3-carboxamide] cannot be ordered by IC50: under 10 nM for the first, under 10 nM for the second.

First: CC(C)(O)[C@H]1CC[C@H](NC(=O)c2cnc3cc4c(cc3c2)OCO4)CC1 [Example 195, N-(trans-4-(2-Hydroxypropan-2-yl)cyclohexyl)-[1,3]dioxolo[4,5-q]quinoline-7-carboxamide]
Second: CC(C)(O)[C@H]1CC[C@H](NC(=O)c2cnc3cc(Cl)c(Cl)cc3c2)CC1 [Example 202A, 6,7-Dichloro-N-(trans-4-(2-hydroxypropan-2-VI)cyclohexyl)quinoline-3-carboxamide]
The IC50 of the first is higher: 100 to 1000 nM for the first, 10 to 79.4 nM for the second.

First: C[C@@H]1CNC(=O)[C@H]1NC(=O)c1cnc2cc(N3CC(F)C3)c(F)cc2c1 [Example 206, 6-Fluoro-7-(3-fluoroazetidin-1-yl)-N-((3S,4R)-4-methyl-2-oxopyrrolidin-3-yl)quinoline-3-carboxamide]
Second: CC1CN(c2cc3ncc(C(=O)N[C@@H]4C(=O)NC[C@H]4C)cc3cc2F)C1 [Example 207, 6-Fluoro-N-((3S,4R)-4-methyl-2-oxopyrrolidin-3-yl)-7-(3-methylazetidin-1-yl)quinoline-3-carboxamide]
The IC50 of the first is lower: 10 to 79.4 nM for the first, 100 to 1000 nM for the second.

`C[N+](C)([O-])[C@H]1CC[C@H](NC(=O)c2cnc3cc(OC(F)F)c(Cl)cc3c2)CC1` [Example 208, trans-4-(6-Chloro-7-(difluoromethoxy)quinoline-3-carboxamido)-N,N-dimethylcyclohexanamine oxide] and `CN1CCN(C(=O)[C@H]2CC[C@H](NC(=O)c3cnc4cc(OC(F)F)c(Cl)cc4c3)CC2)CC1` [Example 211, 6-Chloro-7-(difluoromethoxy)-N-((trans)-4-(4-methylpiperazine-1-carbonyl)cyclohexyl)quinoline-3-carboxamide] fall in the same range of IC50: 10 to 79.4 nM for the first, 10 to 79.4 nM for the second.

`CNc1cc2ncc(C(=O)N[C@H]3CC[C@H](C(C)(C)O)CC3)cc2cc1Cl` [Example 209] and `CC(C)Nc1cc2ncc(C(=O)N[C@H]3CC[C@H](C(C)(C)O)CC3)cc2cc1Cl` [Example 212, 6-Chloro-N-((trans)-4-(2-hydroxypropan-2-yl)cyclohexyl)-7-(isopropylamino)quinoline-3-carboxamide] cannot be ordered by IC50: under 10 nM for the first, under 10 nM for the second.

`O=C(N[C@H]1CC[C@H](C(=O)N2CCOCC2)CC1)c1cnc2cc(OC(F)F)c(Cl)cc2c1` [Example 210, 6-Chloro-7-(difluoromethoxy)-N-((trans)-4-(morpholine-4-carbonyl)cyclohexyl)quinoline-3-carboxamide] and `CC(C)(O)[C@H]1CC[C@H](NC(=O)c2cnc3cc(NC4CC4)c(Cl)cc3c2)CC1` [Example 213, 6-Chloro-7-(cyclopropylamino)-N-((trans)-4-(2-hydroxypropan-2-yl)cyclohexyl)quinoline-3-carboxamide] cannot be ordered by IC50: under 10 nM for the first, under 10 nM for the second.

Same assay, conditions: in at least one experimental run; read-out: H-PGDS pIC50 value (converted)

Compared with `C[C@H]1CCN1c1cc2ncc(C(=O)N[C@H]3CC[C@H](C(C)(C)O)CC3)cc2cc1Cl` [Example 187, 6-Chloro-N-(trans-4-(2-hydroxypropan-2-yl)cyclohexyl)-7-((S)-2-methylazetidin-1-yl)quinoline-3-carboxamide], `CC(C)(O)[C@H]1CC[C@H](NC(=O)c2cnc3cc(Cl)ccc3c2)CC1` [Example 204, 7-Chloro-N-(trans-4-(2-hydroxypropan-2-yl)cyclohexyl)quinoline-3-carboxamide] is 25-fold higher in IC50: 6.31 nM for the first, 158 nM for the second.

With `CC(C)(O)[C@H]1CC[C@H](NC(=O)c2cnc3cc(F)ccc3c2)CC1` [Example 193, 7-Fluoro-N-(trans-4-(2-hydroxypropan-2-yl)cyclohexyl)quinoline-3-carboxamide] the IC50 was 2000 nM.
